In patent publication US20260285876A1, “MACROCYCLIC COMPOUNDS AS USP1 INHIBITORS” (GUANGDONG NEWOPP BIOPHARMACEUTICALS CO., LTD., priority 2023, published 2026) one finds IC50 data, which are given here for 15 compounds.

In general, pIC50 refers to the IC50 on a negative log10 scale, so that one unit is a factor of ten. Lower therefore signals a large IC50.

pIC50: −log10 of the molar value. A value given as a limit tells only on which side of the number the result lay.

T1 sequence (O94782 whole entry): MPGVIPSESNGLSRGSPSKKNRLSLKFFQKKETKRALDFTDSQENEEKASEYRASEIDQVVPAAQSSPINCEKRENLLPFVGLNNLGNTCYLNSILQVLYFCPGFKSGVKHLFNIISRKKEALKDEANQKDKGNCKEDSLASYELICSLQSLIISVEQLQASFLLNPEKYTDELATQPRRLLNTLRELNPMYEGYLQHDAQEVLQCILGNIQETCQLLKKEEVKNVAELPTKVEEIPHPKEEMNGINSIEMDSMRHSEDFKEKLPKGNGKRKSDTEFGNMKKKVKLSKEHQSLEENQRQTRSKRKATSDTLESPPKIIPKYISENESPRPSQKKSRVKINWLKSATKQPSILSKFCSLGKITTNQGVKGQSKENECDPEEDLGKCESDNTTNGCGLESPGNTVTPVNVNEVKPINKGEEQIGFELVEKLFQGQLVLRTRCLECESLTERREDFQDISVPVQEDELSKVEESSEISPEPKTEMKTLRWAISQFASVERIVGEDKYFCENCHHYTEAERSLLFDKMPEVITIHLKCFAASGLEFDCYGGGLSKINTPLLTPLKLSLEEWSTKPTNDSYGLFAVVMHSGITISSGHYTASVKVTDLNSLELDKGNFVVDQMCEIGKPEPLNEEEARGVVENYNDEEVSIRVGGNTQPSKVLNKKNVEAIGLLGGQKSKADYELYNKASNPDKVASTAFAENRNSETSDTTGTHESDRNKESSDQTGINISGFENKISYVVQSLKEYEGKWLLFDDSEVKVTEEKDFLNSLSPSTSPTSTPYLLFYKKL
T1 sequence (Q8TAF3 whole entry partner): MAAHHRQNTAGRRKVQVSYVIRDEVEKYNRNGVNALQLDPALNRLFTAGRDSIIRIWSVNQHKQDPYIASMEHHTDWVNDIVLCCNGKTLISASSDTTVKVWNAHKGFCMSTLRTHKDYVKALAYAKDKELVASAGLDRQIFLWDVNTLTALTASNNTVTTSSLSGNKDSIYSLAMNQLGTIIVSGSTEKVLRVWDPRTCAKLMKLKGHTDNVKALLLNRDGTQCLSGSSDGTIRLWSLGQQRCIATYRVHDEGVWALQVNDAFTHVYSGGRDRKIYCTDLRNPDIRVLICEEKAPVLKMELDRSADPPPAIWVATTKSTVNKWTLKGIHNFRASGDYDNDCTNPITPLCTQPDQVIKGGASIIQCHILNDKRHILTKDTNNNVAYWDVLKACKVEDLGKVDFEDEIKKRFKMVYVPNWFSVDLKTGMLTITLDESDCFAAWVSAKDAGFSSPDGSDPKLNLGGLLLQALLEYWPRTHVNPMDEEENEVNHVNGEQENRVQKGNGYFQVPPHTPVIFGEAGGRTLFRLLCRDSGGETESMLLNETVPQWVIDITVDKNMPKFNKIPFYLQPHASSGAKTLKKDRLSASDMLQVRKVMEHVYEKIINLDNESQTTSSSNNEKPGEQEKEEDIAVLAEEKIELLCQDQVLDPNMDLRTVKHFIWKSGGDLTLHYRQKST

The test has as its target T1, USP1/UAF1 (Homo sapiens, UniProt O94782).
T1 construct: purchased R&D Systems
The test can be described thus: Deubiquitination assay for USP1/UAF1 (ubiquitin-rhodamine 110 substrate). It counts as biochemical. Conditions: 0.5 nM USP1/UAF1, 150 nM ubiquitin-rhodamine, 50% inhibition compared to DMSO control. The protocol: Deubiquitination assay for USP1/UAF1: compounds described here were tested for their ability to inhibit USP1 deubiquitinase activity in this assay using ubiquitin-rhodamine 110 as the substrate. The assay was conducted in the assay buffer (50 mM Tris-HCl, pH 7.8, 0.5 mM EDTA, 0.1 mg/ml Bovine Serum Albumin, 1 mM DTT, 0.01% Tween-20) in 384 well plates. 0.5 nM USP1/UAF1 (R&D Systems) was incubated with compounds in dose response format for 10 minutes at room temperature. Then the reaction was initiated by addition of 150 nM ubiquitin-rhodamine (R&D Systems). The fluorescence intensity was read after 45 minutes at Ex488/Em535 by CLARIOstar (BMG Labtech). IC50 response curves were plotted.
`FC(F)(F)c1cn(C2CC2)c(-c2ccc3c(c2)NCCCOc2ncnc(C4CC4)c2-c2ncc4ccc(n4n2)C3)n1` [Example 41, (Z)-1^6-cyclopropyl-4^4-(1-cyclopropyl-4-(trifluoromethyl)-1H-imidazol-2-yl)-9-oxa-5-aza-2(2,7)-pyrrolo[2,1-f][1,2,4]triazina-1(5,4)-pyrimidina-4(1,2)-benzenacyclononaphane] had a pIC50 of at least 7.00. In turn, `FC(F)(F)c1cn(C2CC2)c(-c2ccc3c(c2)NCCOc2ncnc(C4CC4)c2-c2ncc4ccc(n4n2)C3)n1` [Example 42, (Z)-1^6-cyclopropyl-4^4-(1-cyclopropyl-4-(trifluoromethyl)-1H-imidazol-2-yl)-8-oxa-5-aza-2(2,7)-pyrrolo[2,1-f][1,2,4]triazina-1(5,4)-pyrimidina-4(1,2)-benzenacyclooctaphane] had a pIC50 of at least 7.00. Compound `CC(C)n1cc(C(F)(F)F)nc1-c1ccc2cc1C#CCCOc1ncnc(C3CC3)c1-c1ncc3cnn(c3n1)C2` [Example 43] gave a pIC50 of 6.00 to 7.00. Turning to `CC(C)n1cc(C(F)(F)F)nc1-c1ccc2cc1/C=C/CCOc1ncnc(C3CC3)c1-c1ncc3cnn(c3n1)C2` [Example 44, (E)-1^6-cyclopropyl-4^4-(1-isopropyl-4-(trifluoromethyl)-1H-imidazol-2-yl)-2^1H-9-oxa-2(6,1)-pyrazolo[3,4-d]pyrimidina-1(5,4)-pyrimidina-4(1,3)-benzenacyclononaphan-5-ene], the pIC50 is at least 7.00.

`CC(C)n1cc(C(F)(F)F)nc1-c1ccc2cc1CCCCOc1ncnc(C3CC3)c1-c1ncc3cnn(c3n1)C2` [Example 45, 1^6-cyclopropyl-4^4-(1-isopropyl-4-(trifluoromethyl)-1H-imidazol-2-yl)-2^1H-9-oxa-2(6,1)-pyrazolo[3,4-d]pyrimidina-1(5,4)-pyrimidina-4(1,3)-benzenacyclononaphane] gave a pIC50 of at least 7.00. The compound `CC(C)n1cc(C(F)(F)F)nc1-c1ccc2cc1/C=C\CCOc1ncnc(C3CC3)c1-c1ncc3cnn(c3n1)C2` [Example 46, (Z)-1^6-cyclopropyl-4^4-(1-isopropyl-4-(trifluoromethyl)-1H-imidazol-2-yl)-2^1H-9-oxa-2(6,1)-pyrazolo[3,4-d]pyrimidina-1(5,4)-pyrimidina-4(1,3)-benzenacyclononaphan-5-ene] gave a pIC50 of at least 7.00. `FC(F)(F)c1cn(C2CC2)c(-c2ccc3cc2CCCCOc2ncnc(C4CC4)c2-c2ncc4ccc(n4n2)C3)n1` [Example 47] had a negative-log IC50 (pIC50) of at least 7.00.

`CC(C)n1cc(C(F)(F)F)nc1-c1ccc2cc1OCCCCOc1ncnc(C3CC3)c1-c1ncc3cnn(c3n1)C2` [Example 48, 1^6-cyclopropyl-4^4-(1-isopropyl-4-(trifluoromethyl)-1H-imidazol-2-yl)-2^1H-5,10-dioxa-2(6,1)-pyrazolo[3,4-d]pyrimidina-1(5,4)-pyrimidina-4(1,3)-benzenacyclodecaphane]: the pIC50 was 6.00 to 7.00.

Turning to `CC(C)n1cc(C(F)(F)F)nc1-c1ccc2cc1OCCCOc1ncnc(C3CC3)c1-c1ncc3ccc(=O)n(c3n1)C2` [Example 49, 1^6-cyclopropyl-4^4-(1-isopropyl-4-(trifluoromethyl)-1H-imidazol-2-yl)-2^7,2^8-dihydro-5,9-dioxa-2(2,8)-pyrido[2,3-d]pyrimidina-1(5,4)-pyrimidina-4(1,3)-benzenacyclononaphan-27-one], the pIC50 was at least 7.00. Compound `FC(F)(F)c1cn(C2CC2)c(-c2ccc3c(c2)/C=C/CCOc2ncnc(C4CC4)c2-c2ncc4ccc(n4n2)C3)n1` [Example 51, (2^1Z,5E)-1^6-cyclopropyl-4^4-(1-cyclopropyl-4-(trifluoromethyl)-1H-imidazol-2-yl)-8-oxa-2(2,7)-pyrrolo[2,1-f][1,2,4]triazina-1(5,4)-pyrimidina-4(1,2)-benzenacyclooctaphan-5-ene] had a pIC50 of at least 7.00. Then `FC(F)(F)c1cn(C2CC2)c(-c2ccc3cc2OCCCOc2ncnc(C4CC4)c2-c2ncc4ccc(n4n2)C3)n1` [Example 52, (Z)-1^6-cyclopropyl-4^4-(1-cyclopropyl-4-(trifluoromethyl)-1H-imidazol-2-yl)-5,9-dioxa-2(2,7)-pyrrolo[2,1-f][1,2,4]triazina-1(5,4)-pyrimidina-4(1,3)-benzenacyclononaphane], with at least 7.00; and `CC(C)n1cc(C(F)(F)F)nc1-c1ccc2c(c1)C#CCOc1ncnc(C3CC3)c1-c1ncc3cnn(c3n1)C2` [Example 54, (E)-16-cyclopropyl-44-(1-isopropyl-4-(trifluoromethyl)-1H-imidazol-2-yl)-21H-9-oxa-2(6,1)-pyrazolo[3,4-d]pyrimidina-1(5,4)-pyrimidina-4(1,2)-benzenacyclononaphan-5-ene4(1,2 benzenacyclononaphane], with at least 7.00; and `CC(C)n1cc(C(F)(F)F)nc1-c1ccc2c(c1)/C=C/CCOc1ncnc(C3CC3)c1-c1ncc3cnn(c3n1)C2` [Example 55, (E)-16-cyclopropyl-44-(1-isopropyl-4-(trifluoromethyl)-1H-imidazol-2-yl)-21H-9-oxa-2(6,1)-pyrazolo[3,4-d]pyrimidina-1(5,4)-pyrimidina-4(1,2)-benzenacyclononaphan-5-ene4(1,2)-benzenacyclononaphane], with at least 7.00. On to `Cc1cc(C(F)(F)F)nn1-c1ccc2cc1OCCCOc1ncnc(C3CC3)c1-c1ncc3cnn(c3n1)C2` [Example 56, 1^6-cyclopropyl-4^4-(5-methyl-3-(trifluoromethyl)-1H-pyrazol-1-yl)-2^1H-5,9-dioxa-2(6,1)-pyrazolo[3,4-d]pyrimidina-1(5,4)-pyrimidina-4(1,3)-benzenacyclononaphane], for which the pIC50 is at least 7.00.

In turn, `FC(F)(F)c1cn(C2CC2)c(-c2ccc3c(c2)/C=C/COc2ncnc(C4CC4)c2-c2ncc4cnn(c4n2)C3)n1` [Example 57] had a pIC50 of at least 7.00.
